# In ChEMBL document CHEMBL1201862, “PubChem BioAssay data set” (2004):
# “And” between values parts separate entries of the source, which are not always exact repeats. Identical values can stand only once.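 Dose response: 5 concentrations. Exposure: 48 h. Format: 96-well plates. Endpoint: linear interpolation; highest concentration if not reached. Here, GI50 denotes the concentration required for 50% inhibition of growth.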 The source made the active and inactive calls. Cut-off read from the data, not from the text of the source: active = GI50 up to about 1.1 µM and inactive = higher.
# Columns and labels:
# Experiment in all cases: NCI-60 cell line screen, 48 h
# A498 = tested on: A498
# A549 = tested on: A549
# CCRF-CEM = tested on: CCRF-CEM
# HCC 2998 = tested on: HCC 2998
# HCT-116 = tested on: HCT-116
# HOP-92 = tested on: HOP-92
# Hs-578T = tested on: Hs-578T
# LOX IMVI = tested on: LOX IMVI
# MOLT-4 = tested on: MOLT-4
# NCI-H23 = tested on: NCI-H23
# NCI-H460 = tested on: NCI-H460
# OVCAR-4 = tested on: OVCAR-4
# OVCAR-5 = tested on: OVCAR-5
# OVCAR-8 = tested on: OVCAR-8
# SNB-19 = tested on: SNB-19
# SR = tested on: SR
# UACC-62 = tested on: UACC-62
# MCF7 = tested on: MCF7
# NCI-H522 = tested on: NCI-H522
Structure (SMILES),GI50 (A498),GI50 (A549),GI50 (CCRF-CEM),GI50 (HCC 2998),GI50 (HCT-116),GI50 (HOP-92),GI50 (Hs-578T),GI50 (LOX IMVI),GI50 (MOLT-4),GI50 (NCI-H23),GI50 (NCI-H460),GI50 (OVCAR-4),GI50 (OVCAR-5),GI50 (OVCAR-8),GI50 (SNB-19),GI50 (SR),GI50 (UACC-62),GI50 (MCF7),GI50 (NCI-H522)
COc1ccc(-c2c(C#N)c(N)n(C3OC(CO)C(O)C(O)C3O)c(=S)c2C#N)cc1 (configuration not stated),> 100 µM (inactive) and 52.6 µM (inactive),> 100 µM (inactive),> 100 µM (inactive),> 100 µM (inactive),> 100 µM (inactive),20.2 µM (inactive),21.7 µM (inactive),> 100 µM (inactive) and 77.4 µM (inactive),> 100 µM (inactive) and 68.2 µM (inactive),> 100 µM (inactive),97.1 µM (inactive),> 100 µM (inactive) and 67.9 µM (inactive),> 100 µM (inactive),> 100 µM (inactive),> 100 µM (inactive),> 100 µM (inactive),> 100 µM (inactive),–,–
CCOC(=O)c1cc(C2(OC)CCN(Cc3ccccc3)C2=O)c(-c2cc(C)no2)[nH]1 (configuration not stated),> 100 µM (inactive),> 100 µM (inactive),–,> 100 µM (inactive),> 100 µM (inactive),90.6 µM (inactive),> 100 µM (inactive),–,> 100 µM (inactive),> 100 µM (inactive),82.4 µM (inactive),> 100 µM (inactive),> 100 µM (inactive),> 100 µM (inactive),> 100 µM (inactive),–,> 100 µM (inactive),94.6 µM (inactive),> 100 µM (inactive)
CCCCc1ccc(Nc2nc(S)c3[nH]cnc3n2)cc1,16.6 µM (inactive),36.8 µM (inactive),21.1 µM (inactive),25.5 µM (inactive),25.5 µM (inactive),32.4 µM (inactive),21.5 µM (inactive),17.5 µM (inactive),1.43 µM (inactive),18.7 µM (inactive),33.3 µM (inactive),23.9 µM (inactive),17.2 µM (inactive),> 10 µM (inactive),22.8 µM (inactive),–,18.5 µM (inactive),> 10 µM (inactive),10.9 µM (inactive)
CCOC(=O)c1ccc(-c2ccc(Cl)cc2)[nH]1,–,> 10 µM (inactive),> 10 µM (inactive),> 10 µM (inactive),> 10 µM (inactive),> 10 µM (inactive),> 10 µM (inactive),–,> 10 µM (inactive),> 10 µM (inactive),> 10 µM (inactive),> 10 µM (inactive),> 10 µM (inactive),> 10 µM (inactive),> 10 µM (inactive),> 10 µM (inactive),> 10 µM (inactive),–,> 10 µM (inactive)
Cc1cn(C2CCC(/C=N\O)O2)c(=O)[nH]c1=O (configuration not stated),> 100 µM (inactive),> 100 µM (inactive),> 100 µM (inactive),> 100 µM (inactive),> 100 µM (inactive),> 100 µM (inactive),–,> 100 µM (inactive),> 100 µM (inactive),> 100 µM (inactive),> 100 µM (inactive),> 100 µM (inactive),> 100 µM (inactive),> 100 µM (inactive),> 100 µM (inactive),> 100 µM (inactive),> 100 µM (inactive),> 100 µM (inactive),–
CC(=O)OC(C)(C)CCC(=O)[C@](C)(O)[C@H]1[C@H](O)C[C@@]2(C)[C@@H]3CCc4c(cc(OC5OC(CO)C(O)C(O)C5O)c(O)c4C)C3(C)C(=O)C[C@]12C (some centres not stated),> 100 µM (inactive),> 100 µM (inactive),> 100 µM (inactive),> 100 µM (inactive),> 100 µM (inactive),> 100 µM (inactive),–,> 100 µM (inactive),> 100 µM (inactive),> 100 µM (inactive),> 100 µM (inactive),> 100 µM (inactive),> 100 µM (inactive),> 100 µM (inactive),> 100 µM (inactive),> 100 µM (inactive),> 100 µM (inactive),> 100 µM (inactive),> 100 µM (inactive)
Cc1nc(=O)[nH]c(NCCNCCO)c1C(=O)Nc1cccc2cc3ccccc3cc12,> 100 µM (inactive),> 100 µM (inactive),> 100 µM (inactive),> 100 µM (inactive),> 100 µM (inactive),> 100 µM (inactive),> 100 µM (inactive),> 100 µM (inactive),> 100 µM (inactive),> 100 µM (inactive),> 100 µM (inactive),> 100 µM (inactive),> 100 µM (inactive),> 100 µM (inactive),> 100 µM (inactive),> 100 µM (inactive),> 100 µM (inactive),–,> 100 µM (inactive)
CSC1=N[C@H](c2ccccc2)CS1,> 100 µM (inactive),> 100 µM (inactive),> 100 µM (inactive),> 100 µM (inactive),> 100 µM (inactive),–,> 100 µM (inactive),–,> 100 µM (inactive),> 100 µM (inactive),> 100 µM (inactive),> 100 µM (inactive),> 100 µM (inactive),–,> 100 µM (inactive),–,> 100 µM (inactive),> 100 µM (inactive),–
c1nc(NCCc2c[nH]cn2)c2nc[nH]c2n1,> 100 µM (inactive),> 100 µM (inactive),> 100 µM (inactive),–,> 100 µM (inactive),> 100 µM (inactive),> 100 µM (inactive),> 100 µM (inactive),> 100 µM (inactive),> 100 µM (inactive),> 100 µM (inactive),> 100 µM (inactive),> 100 µM (inactive),> 100 µM (inactive),> 100 µM (inactive),> 100 µM (inactive),> 100 µM (inactive),–,> 100 µM (inactive)
COC(=O)C1(C(=O)OC)N=C(C)OC1C(C)C (configuration not stated),> 100 µM (inactive),> 100 µM (inactive),> 100 µM (inactive),> 100 µM (inactive),> 100 µM (inactive),> 100 µM (inactive),–,> 100 µM (inactive),> 100 µM (inactive),> 100 µM (inactive),> 100 µM (inactive),> 100 µM (inactive),> 100 µM (inactive),> 100 µM (inactive),> 100 µM (inactive),> 100 µM (inactive),–,> 100 µM (inactive),–
CCCCNC(=S)Nc1nc(C(=O)NNC(=O)c2ccccc2)cs1,30.3 µM (inactive),20.4 µM (inactive),27.9 µM (inactive),13.7 µM (inactive),13.1 µM (inactive),40.2 µM (inactive),–,10.1 µM (inactive),20.5 µM (inactive),> 10 µM (inactive),–,9.29 µM (inactive),17.6 µM (inactive),17.4 µM (inactive),–,29.6 µM (inactive),17.6 µM (inactive),–,19.3 µM (inactive)
C=C(C)C1Cc2cc(C(C)=O)ccc2O1 (configuration not stated),–,> 100 µM (inactive),> 100 µM (inactive),> 100 µM (inactive),> 100 µM (inactive),> 100 µM (inactive),> 100 µM (inactive),> 100 µM (inactive),> 100 µM (inactive),> 100 µM (inactive),> 100 µM (inactive),> 100 µM (inactive),> 100 µM (inactive),> 100 µM (inactive),> 100 µM (inactive),–,> 100 µM (inactive),> 100 µM (inactive),> 100 µM (inactive)
COc1ccc(C(CCC(C)=O)C(=O)O)cc1OC (configuration not stated),> 100 µM (inactive),> 100 µM (inactive),–,–,> 100 µM (inactive),> 100 µM (inactive),–,> 100 µM (inactive),–,> 100 µM (inactive),> 100 µM (inactive),> 100 µM (inactive),> 100 µM (inactive),> 100 µM (inactive),> 100 µM (inactive),> 100 µM (inactive),> 100 µM (inactive),–,–
CC1=Nc2c(ccc3c2C(=O)c2ccccc2C3=O)NC(c2cccc3c2CCC3)C1 (configuration not stated),> 67.3 µM (inactive),> 100 µM (inactive),0.612 µM (active),> 100 µM (inactive),66.2 µM (inactive),> 65 µM (inactive),–,24.2 µM (inactive),5.11 µM (inactive),> 100 µM (inactive),47.8 µM (inactive),> 100 µM (inactive),> 100 µM (inactive),> 100 µM (inactive),> 100 µM (inactive),11 µM (inactive),> 100 µM (inactive),–,> 23.1 µM (inactive)
CCSC(SCC)=C1C(=O)N(c2ccccc2)N=C1C,15.3 µM (inactive),18.1 µM (inactive),2.92 µM (inactive),14.5 µM (inactive),15.1 µM (inactive),6.38 µM (inactive),–,12.4 µM (inactive),6.98 µM (inactive),18.3 µM (inactive),16 µM (inactive),–,15.9 µM (inactive),11.6 µM (inactive),25.2 µM (inactive),15.6 µM (inactive),13.7 µM (inactive),–,1.95 µM (inactive)
Cc1ccccc1NC(=N)Nc1ccccc1C,> 100 µM (inactive),> 100 µM (inactive),> 100 µM (inactive),21.9 µM (inactive),> 100 µM (inactive),–,> 100 µM (inactive),> 100 µM (inactive),> 100 µM (inactive),> 100 µM (inactive),> 100 µM (inactive),> 100 µM (inactive),> 100 µM (inactive),> 100 µM (inactive),> 100 µM (inactive),–,> 100 µM (inactive),> 100 µM (inactive),> 100 µM (inactive)
